# Test results from US20130251678A1, “BID DOSAGE REGIMEN FOR DEB025” (NOVARTIS AG, priority 2010, published 2013).
# How the values were obtained:
# Type in all cases: in vivo, human
# HCV Genotype 1 [1] = experiment: Clinical study in HCV Genotype 1 non responder patients: decline in HCV RNA from baseline; settings: with peg-IFNα2a plus RBV
# From the text: HCV RNA levels can be measured using commercially available methods. As used herein, LOD means limit of detection and LOQ means limit of quantification of HCV RNA levels. For example, when using the COBAS® TaqMan® HCV Test, v2.0 (Roche Diagnostics) for assessment of HCV RNA levels, LOQ of 25 IU/ml (1.398 log10) and LOD of 10 IU/ml (1 log10) have been reported.
# The efficacy of the therapy regimen may be monitored using standard protocols. Treatment may be followed by determinations of HCV in serum and measurement of serum ALT (alanine-aminotransferase) levels. For example, the patients may be assessed for the presence of HCV RNA in their plasma. HCV RNA (IU/mL) can be measured at regular intervals during the treatment, e.g., at Day 1 (pre-dose and 4, 8, and 12 hours post-dose) and pre-dose at Day 2, Day 3, Day 8, Day 15, Day 29, and at Week 12, Week 24, Week 36, Week 48, Week 72 (when applicable), and at follow up. In addition, the HCV strains in the patient can be sequenced and assessed for identification of mutations selecting for resistance.
# In this hard to treat patient population, the 400 mg BID dose provided greater decline in HCV RNA from baseline (−1.41 log10 IU/ml) than the 800 mg QD dose (−0.70 log10 IU/ml). […]
# [2] = Observed alisporivir Cmin in the HCV Genotype 1 non responder patient study; settings: first week of treatment
# From the text: As used herein, AUC refers to Area Under the Curve in [hr ng/mL] or area under the concentration vs time curve indicating the integrated quantity of analyte or drug (the serum concentration curve) after dosing; Cmax refers to the maximum concentration of the analyte or drug in [ng/mL] achieved after dosing; Cmin refers to the minimum concentration of the analyte or drug in [ng/mL] achieved after dosing
# HCV Genotype 1 [3] = experiment: Phase 2 study of genotype 1 treatment-naive patients: sustained virologic response (SVR); settings: 600 mg BID for one week followed by 600 mg QD, 48 week treatment duration, combined with peg-IFNα2a
# From the text: The virological response parameters are: rapid virologic response at treatment week 4 (RVR 4) defined by undetectable serum HCV-RNA at treatment week 4; early virological response (EVR), defined by at least 2 log10 IU/mL reduction in HCV-RNA compared to baseline (partial EVR) or undetectable serum HCV-RNA (complete EVR) at treatment week 12; sustained virological response (SVR24), defined as absence of HCV-RNA from serum by a sensitive Polymerase Chain Reaction (PCR) assay 24 weeks following end of therapy or the HCV RNA is undetectable (by LOD) 24 weeks after end of treatment; End of Treatment Response (ETR): HCV RNA undetectable (by LOD) at treatment end (completed or prematurely discontinued).
smiles,measurement,setting,value
"C/C=C/C[C@@H](C)[C@@H](O)[C@H]1C(=O)N[C@@H](CC)C(=O)N(C)[C@H](C)C(=O)N(CC)[C@@H](C(C)C)C(=O)N[C@@H](C(C)C)C(=O)N(C)[C@@H](CC(C)C)C(=O)N[C@@H](C)C(=O)N[C@H](C)C(=O)N(C)[C@@H](CC(C)C)C(=O)N(C)[C@@H](CC(C)C)C(=O)N(C)[C@@H](C(C)C)C(=O)N1C [alisporivir, Alisporivir]",decline in HCV RNA from baseline,HCV Genotype 1 [1]; 400 mg BID during first week of treatment,−1.41 log10 IU/ml
same,decline in HCV RNA from baseline,HCV Genotype 1 [1]; 800 mg QD during first week of treatment,−0.70 log10 IU/ml
same,median observed Cmin,[2]; 400 mg BID,175 ng/mL
same,median observed Cmin,[2]; 800 mg QD,148 ng/mL
same,rates of achievement of sustained virologic response (SVR) versus peg-IFNα2a,HCV Genotype 1 [3],superior
